Measurements as given in patent US11529341B2, “Bicyclic compounds as inhibitors of PD1/PD-L1 interaction/activation” (JUBILANT PRODEL LLC, priority 2018, dated 2022).

Biological target: T1, PD-1/PD-L1 interaction (Homo sapiens, UniProt Q9NZQ7)
T1 construct: Tag1 (undisclosed kit tag); purchased CisBio 63ADK000CPAPEG
Test: PD-1/PD-L1 Homogenous Time-Resolved Fluorescence (HTRF) binding assay (CisBio kit)
Conditions: Biochemical PD1/PD-L1 inhibition
Method: PD-L1 Enzyme Assay: Homogenous Time-Resolved Fluorescence (HTRF) Binding Assay
All binding studies were performed using PD-1/PD-L1 Binding Assay Kit from CisBio (Catalog #63ADK000CPAPEG), according to the manufacturer's protocol. The interaction between Tag1-PD-1 and […] was detected by anti-Tag1-Eu^3+ (HTRF donor) and anti-Tag2-XL665 (HTRF acceptor). When the donor and acceptor antibodies were brought to close proximity due to PD-1 and PD-L1 binding, excitation of the donor antibody triggered fluorescent resonance energy transfer (FRET) towards the acceptor antibody, which in turn emitted specifically at 665 nm. This specific signal is positively proportional to PD-1/PD-L1 interaction. The compounds blocking PD-1/PD-L1 interaction will cause a reduction in HTRF signal. The necessary reagents were mixed in the following order: 2 μl compounds (or diluents buffer), 4 μl PD-L1 protein, 4 μl PD-1 protein. After an incubation of 15 minutes, 5 μl of anti-Tag1-Eu^3+ and 5 μl of anti-Tag2-XL665 were added. The plate was sealed and incubated at room temperature for 1 h. The fluorescence emission was read at two different wavelengths (665 nm and 620 nm) on a BMG PheraStar® multi-plate reader. Results were calculated from the 665 nm and 620 nm fluorescence signal and expressed in HTRF ratio=(665 nm/620 nm)×10^4.

T1 sequence (Q9NZQ7 19-238 limits assumed): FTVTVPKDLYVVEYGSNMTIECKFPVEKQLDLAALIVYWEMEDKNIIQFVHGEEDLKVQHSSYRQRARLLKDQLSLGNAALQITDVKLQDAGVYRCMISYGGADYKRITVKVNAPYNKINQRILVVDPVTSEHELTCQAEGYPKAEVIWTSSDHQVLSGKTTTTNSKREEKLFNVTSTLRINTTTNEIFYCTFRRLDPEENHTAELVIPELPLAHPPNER

Row | Structure (SMILES) | IC50 [nM]
1 | Cc1c(COc2cc(OCc3cncc(C#N)c3)c(CN3CC4(CC4)C[C@H]3C(=O)O)c3c2CCC3)cccc1-c1ccccc1 [Compound 52, (S)-5-((5-((5-cyanopyridin-3-yl)methoxy)-7-((2-methyl-[1,1′-biphenyl]-3-yl)methoxy)-2,3-dihydro-1H-inden-4-yl)methyl)-5-azaspiro[2.4]heptane-6-carboxylic acid] | < 100
2 | CC(=O)NCCN(C)Cc1c(OCc2cccc(C#N)c2)cc(OCc2cccc(-c3ccccc3)c2C)c2c1CCC2 [Compound 53, N-(2-(((5-((3-cyanobenzyl)oxy)-7-((2-methyl-[1,1′-biphenyl]-3-yl)methoxy)-2,3-dihydro-1H-inden-4-yl)methyl)(methyl)amino)ethyl)acetamide] | < 100
3 | CC(=O)NCCNCc1c(OCc2ccc(C#N)cc2)cc(OCc2cccc(-c3ccccc3)c2C)c2c1CCC2 [Compound 54, N-(2-(((5-((4-cyanobenzyl)oxy)-7-((2-methyl-[1,1′-biphenyl]-3-yl)methoxy)-2,3-dihydro-1H-inden-4-yl)methyl)amino)ethyl)acetamide] | 100 to 500
4 | COc1cc(OCc2cccc(-c3ccccc3)c2C#N)c2c(c1CN1CCCC[C@H]1C(=O)O)CCC2 [Compound 55, (S)-1-((7-((2-cyano-[1,1′-biphenyl]-3-yl)methoxy)-5-methoxy-2,3-dihydro-1H-inden-4-yl)methyl)piperidine-2-carboxylic acid] | < 100
5 | COc1cc(OCc2cccc(-c3ccccc3)c2C#N)c2c(c1CNCCNC(C)=O)CCC2 [Compound 56, N-(2-(((7-((2-cyano-[1,1′-biphenyl]-3-yl)methoxy)-5-methoxy-2,3-dihydro-1H-inden-4-yl)methyl)amino)ethyl)acetamide] | < 100
6 | COc1cc(OCc2cccc(-c3ccccc3)c2C#N)c2c(c1CN1C[C@H](O)C[C@H]1C(=O)O)CCC2 [Compound 57, (2S,4R)-1-((7-((2-cyano-[1,1′-biphenyl]-3-yl)methoxy)-5-methoxy-2,3-dihydro-1H-inden-4-yl)methyl)-4-hydroxypyrrolidine-2-carboxylic acid] | < 100
7 | COc1cc(OCc2cccc(-c3ccccc3)c2C#N)c2c(c1CNC(CO)(CO)CO)CCC2 [Compound 58, 3-(((7-(((1,3-dihydroxy-2-(hydroxymethyl)propan-2-yl)amino)methyl)-6-methoxy-2,3-dihydro-1H-inden-4-yl)oxy)methyl)-[1,1′-biphenyl]-2-carbonitrile] | < 100
8 | COc1cc(OCc2cccc(-c3ccccc3)c2C#N)c2c(c1CN1CCOC[C@H]1C(=O)O)CCC2 [Compound 59, (S)-4-((7-((2-cyano-[1,1′-biphenyl]-3-yl)methoxy)-5-methoxy-2,3-dihydro-1H-inden-4-yl)methyl)morpholine-3-carboxylic acid] | < 100
9 | COc1cc(OCc2cccc(-c3ccccc3)c2C#N)c2c(c1CNCC(=O)O)CCC2 [Compound 60, ((7-((2-cyano-[1,1′-biphenyl]-3-yl)methoxy)-5-methoxy-2,3-dihydro-1H-inden-4-yl)methyl)glycine] | < 100
10 | COc1cc(OCc2cccc(-c3ccccc3)c2C#N)c2c(c1CN1CC3(CC3)C[C@H]1C(=O)O)CCC2 [Compound 61, (S)-5-((7-((2-cyano-[1,1′-biphenyl]-3-yl)methoxy)-5-methoxy-2,3-dihydro-1H-inden-4-yl)methyl)-5-azaspiro[2.4]heptane-6-carboxylic acid] | < 100
11 | COc1cc(OCc2cccc(-c3ccccc3)c2C#N)c2c(c1CN1CCCCC1CC(=O)O)CCC2 (centres unmarked) [Compound 63, 2-(1-((7-((2-cyano-[1,1′-biphenyl]-3-yl)methoxy)-5-methoxy-2,3-dihydro-1H-inden-4-yl)methyl)piperidin-2-yl)acetic acid] | 100 to 500
12 | COc1cc(OCc2cccc(-c3ccccc3)c2C#N)c2c(c1CN(C)CCN(C)C(C)=O)CCC2 [Compound 64, N-(2-(((7-((2-cyano-[1,1′-biphenyl]-3-yl)methoxy)-5-methoxy-2,3-dihydro-1H-inden-4-yl)methyl)(methyl)amino)ethyl)-N-methylacetamide] | 100 to 500
13 | CC(=O)NCCNCc1c(OCCCCC(=O)O)cc(OCc2cccc(-c3ccccc3)c2C)c2c1CCC2 [Compound 65, 5-((4-(((2-acetamidoethyl)amino)methyl)-7-((2-methyl-[1,1′-biphenyl]-3-yl)methoxy)-2,3-dihydro-1H-inden-5-yl)oxy)pentanoic acid] | < 100
14 | CC(=O)NCCNCc1c(OCCCCC(N)=O)cc(OCc2cccc(-c3ccccc3)c2C)c2c1CCC2 [Compound 66, 5-((4-(((2-acetamidoethyl)amino)methyl)-7-((2-methyl-[1,1′-biphenyl]-3-yl)methoxy)-2,3-dihydro-1H-inden-5-yl)oxy)pentanamide] | 100 to 500
15 | Cc1c(COc2cc(OCCCCC(=O)O)c(CN3CCCC[C@H]3C(=O)O)c3c2CCC3)cccc1-c1ccccc1 [Compound 67, (S)-1-((5-(4-carboxybutoxy)-7-((2-methyl-[1,1′-biphenyl]-3-yl)methoxy)-2,3-dihydro-1H-inden-4-yl)methyl)piperidine-2-carboxylic acid] | < 100
16 | Cc1c(COc2cc(OCCCCC(N)=O)c(CN3CCCC[C@H]3C(=O)O)c3c2CCC3)cccc1-c1ccccc1 [Compound 68, (S)-1-((5-((5-amino-5-oxopentyl)oxy)-7-((2-methyl-[1,1′-biphenyl]-3-yl)methoxy)-2,3-dihydro-1H-inden-4-yl)methyl)piperidine-2-carboxylic acid] | < 100
17 | N#Cc1cncc(COc2cc(OCc3cccc(-c4ccccc4)c3C#N)c3c(c2CN2CCCC[C@H]2C(=O)O)CCC3)c1 [Compound 69, (S)-1-((7-((2-cyano-[1,1′-biphenyl]-3-yl)methoxy)-5-((5-cyanopyridin-3-yl)methoxy)-2,3-dihydro-1H-inden-4-yl)methyl)piperidine-2-carboxylic acid] | < 100
18 | N#Cc1cncc(COc2cc(OCc3cccc(-c4ccccc4)c3C#N)c3c(c2CN2C[C@H](O)C[C@H]2C(=O)O)CCC3)c1 [Compound 70, (2S,4R)-1-((7-((2-cyano-[1,1′-biphenyl]-3-yl)methoxy)-5-((5-cyanopyridin-3-yl)methoxy)-2,3-dihydro-1H-inden-4-yl)methyl)-4-hydroxypyrrolidine-2-carboxylic acid] | < 100
19 | N#Cc1cncc(COc2cc(OCc3cccc(-c4ccccc4)c3C#N)c3c(c2CN2CCC[C@@H](C(=O)O)C2)CCC3)c1 [Compound 71, (R)-1-((7-((2-cyano-[1,1′-biphenyl]-3-yl)methoxy)-5-((5-cyanopyridin-3-yl)methoxy)-2,3-dihydro-1H-inden-4-yl)methyl)piperidine-3-carboxylic acid] | < 100
20 | COC(=O)C12CCC(NCc3c(OCc4cccc(C#N)c4)cc(OCc4cccc(-c5ccccc5)c4C)c4c3CCC4)(CC1)CC2 [Compound 73, methyl 4-(((5-((3-cyanobenzyl)oxy)-7-((2-methyl-[1,1′-biphenyl]-3-yl)methoxy)-2,3-dihydro-1H-inden-4-yl)methyl)amino)bicyclo[2.2.2]octane-1-carboxylate] | 100 to 500
21 | Cc1c(COc2cc(OCc3cccc(C#N)c3)c(CNC34CCC(C(=O)O)(CC3)CC4)c3c2CCC3)cccc1-c1ccccc1 [Compound 74, 4-(((5-((3-cyanobenzyl)oxy)-7-((2-methyl-[1,1′-biphenyl]-3-yl)methoxy)-2,3-dihydro-1H-inden-4-yl)methyl)amino)bicyclo[2.2.2]octane-1-carboxylic acid] | < 100
22 | COc1cc(OCc2cccc(-c3ccccc3)c2C(F)(F)F)c2c(c1CN1CCCC[C@H]1C(=O)O)CCC2 [Compound 75, (S)-1-((5-methoxy-7-((2-(trifluoromethyl)-[1,1′-biphenyl]-3-yl)methoxy)-2,3-dihydro-1H-inden-4-yl)methyl)piperidine-2-carboxylic acid] | > 500
23 | COc1cc(OCc2cccc(-c3ccccc3)c2C(F)(F)F)c2c(c1CN1C[C@H](O)C[C@H]1C(=O)O)CCC2 [Compound 76, (2S,4R)-4-hydroxy-1-((5-methoxy-7-((2-(trifluoromethyl)-[1,1′-biphenyl]-3-yl)methoxy)-2,3-dihydro-1H-inden-4-yl)methyl)pyrrolidine-2-carboxylic acid] | > 500
24 | Cc1c(COc2cc(OCC3CCCN(C)C3)c(CN3CCCC[C@H]3C(=O)O)c3c2CCC3)cccc1-c1ccccc1 (stereo partly drawn) [Compound 77, (2S)-1-((7-((2-methyl-[1,1′-biphenyl]-3-yl)methoxy)-5-((1-methylpiperidin-3-yl)methoxy)-2,3-dihydro-1H-inden-4-yl)methyl)piperidine-2-carboxylic acid] | < 100
25 | N#Cc1c(COc2cc(OCCCCC(=O)O)c(CN3CCCC[C@H]3C(=O)O)c3c2CCC3)cccc1-c1ccccc1 [Compound 78, (S)-1-((5-(4-carboxybutoxy)-7-((2-cyano-[1,1′-biphenyl]-3-yl)methoxy)-2,3-dihydro-1H-inden-4-yl)methyl)piperidine-2-carboxylic acid] | < 100
26 | CC(=O)NCCNCc1c(OCCCCC#N)cc(OCc2cccc(-c3ccccc3)c2C)c2c1CCC2 [Compound 79, N-(2-(((5-(4-cyanobutoxy)-7-((2-methyl-[1,1′-biphenyl]-3-yl)methoxy)-2,3-dihydro-1H-inden-4-yl)methyl)amino)ethyl)acetamide] | < 100
